Test system: T. cruzi intracellular amastigotes in H9c2 cells
Assay: Rate-of-Kill (RoK) high-content imaging assay, amastigotes per cell (AM/CELL) and curve descriptors
Format: cell-based, Trypanosoma cruzi
Set-up: key to ME_24h / ME_48h / ME_72h: % reduction in parasite burden (cidal response); t50pct_MCC50 / t50pct_Cmax: unit not given here
Details: for ME_24h: 24h; for ME_48h: 48h; for ME_72h: 72h; for t50%_Cmax / tlag_Cmax / t50pct_Cmax: at Cmax; for ME_24h (%): maximum effect at 24 h; for ME_24h (%) / ME_48h (%) / ME_72h (%): RoK assay; for ME_48h (%): maximum effect at 48 h; for ME_72h (%): maximum effect at 72 h; for ME 24h (maximum effect at 24 hours, intracellular amastigotes): maximum percentage of parasite burden reduction reached by any concentration
Description: For this high-content intracellular imaging assay, H9c2 cells were seeded in 225 cm^2 T- FLASK in DMEM with 10% FBS for 4 h to allow attachment. T. cruzi trypomastigotes, collected at days 5 to 8 after infection from LLC-MK2 parasite infected cultures, were allowed to swim out for 4 h at 37°C from a centrifuged pellet (1,600 x g / 10 min). Trypomastigotes were then collected and counted in a CASY Cell Counter using the 60 μm capillary. Trypomastigotes, in supplemented DMEM, were added to H9c2 cultures in a multiplicity of infection (MOI) of 8 and incubated for 18 h. Cells were washed once with PBS before incubation of the infected H9c2 monolayer with trypsin (Life-Technologies) to detach cells from the flask. Cells were counted in a CASY Cell Counter, using the 150 μm capillary, and their density set at 5 x 10^4 cells/mL in supplemented DMEM. Infected H9c2 were dispensed into 384-well plates at 50 μL per well using a Multidrop Combi dispenser. Control wells used to determine a 100% parasitic growth (full 6th column of each plate) were left untreated, whereas not infected cells were added in the control wells used as 0% parasite growth (or 100% parasite growth inhibition; full 18th column of each plate). The four plates corresponding to each RoK assay were predispensed for the same mother plate. […] Cultures were then fixed and stained with 50 μL per well of a PBS solution containing 4% formaldehyde and 2 μM DRAQ5 DNA dye (BioStatus, UK). Then plates were read in a PerkinElmer Opera Phenix using a 20x objective, 3 fields per well. DRAQ5 signal was detected using 640 nm excitation laser and a 690/50 nm emission detection filter. Automated image analysis was performed with a script developed on Acapella High Content Imaging and Analysis Software (PerkinElmer). Two outputs were provided for each sample well: (1) number of host cells nuclei to determine drug-related cytotoxicity (aka H9c2) and (2) number of amastigotes per cell as infection level measurement (aka AM/CELL). Each output is plotted as a time course for each compound at every concentration. This assay was adapted from Alonso-Padilla et al. and Peña et al..
To identify and classify the different compounds, the number of amastigotes per cell (AM/CELL) raw data obtained in rate of kill assay are normalised using the average of C1 (infected cells) at time 4 hours as 0% effect and the average of C2 (non-infected cells) for each time as 100% effect, according to the following Eq 1: %CIDALRESPONSE=100*[Avg_C14h-RawData]/[Avg_C14h-Avg_C2] (1)
• ME (Maximum Effect) is the maximum percentage of parasite burden reduction reached by any compound concentration. Compounds that decrease the initial parasite load will show a positive value of ME, whereas compounds that allow the progression of infection will render a negative ME value. […] It is calculated for the MCC50 (t50%_MCC50) and for the maximum concentration (t50%_Cmax). […] The value of this parameter is not either interpolated or extrapolated, and it refers to the first experimental time-course point at which a 50% of effect is reached or exceeded. • tlag defines the time elapsed for one particular concentration to reduce parasite burden between two consecutive points at any moment of the time course. It is calculated for the MCC50 (tlag_MCC50) and for the maximum concentration (tlag_Cmax). The value of this parameter is not either interpolated or extrapolated, and it refers to the first experimental time-course point of a positive slope in the normalised plot (i.e. %Cidal_Response). • Cmin_Tox (Minimal CytoToxic Concentration) is the lowest compound concentration that is reducing the number of host mammalian cells below 50% of initial cell density. Cytotoxic compounds may mislead a bona fide antiparasitic action.

| Compound | ME_24h (figure 5) | ME_48h (figure 5) | ME_72h (figure 5) | MCC50 (RoK curve descriptor) | MCCE (RoK curve descriptor) | AM/CELL NORM (Time 4, sheet figure 4 A) | AM/CELL NORM (Time 24, sheet figure 4 A) | AM/CELL NORM (Time 48, sheet figure 4 A) | AM/CELL NORM (Time 72, sheet figure 4 A) | t50%_Cmax | tlag_Cmax | t50pct_Cmax (figure 5) | tlag_Cmax (figure 5) | t50pct_MCC50 (at MCC50, figure 5) | tlag_MCC50 (at MCC50, figure 5) | MCCE (figure 5) | ME_24h (%) | ME_48h (%) | ME_72h (%) | ME 24h (maximum effect at 24 hours, intracellular amastigotes) | other results |
| --- | --- | --- | --- | --- | --- | --- | --- | --- | --- | --- | --- | --- | --- | --- | --- | --- | --- | --- | --- | --- | --- |
| COc1ccc(-c2nc3ncccc3o2)cc1NC(=O)c1cccs1 [TCMDC-143137] | 22.8714 | 76.8526 | 102.262 | 16.7 µM | 5.6 µM | -5.518 | 19.5521 | 76.8526 | 68.9196 | 48.0 h | 4.0 h | 48 | 4 | 48 | 4 | 5.556 | 22.9% | 76.9% | 102.3% | 22.8714% | cidality in the RoK assay (in words): not signs of cidality at 24 hours; ME / cidal effect at 72 hours: 100%; t50%_MCC50 (at MCC50): 48.0 h; tlag_MCC50 (at MCC50): 4.0 h; MCC50 (figure 5, in µM): 16.6667 |
| COc1cccc(CCNC(=O)C(c2cn[nH]c2)N2CCN(c3ccc(Cl)cc3)CC2)c1 (stereo not shown) [TCMDC-143434] | 51.5158 | 102.276 | 117.751 | 5.6 µM | 0.07 µM | 2.576 | 51.5158 | 102.276 | 117.751 | 24.0 h | 4.0 h | 24 | 4 | 72 | 24 | 0.06859 | 51.5% | 102.3% | 117.8% | 51.5158% | t50%_MCC50 (at MCC50): 72.0 h; tlag_MCC50 (at MCC50): 24.0 h; MCC50 (figure 5, in µM): 5.556 |
| Cc1nc2nc(C)c(Cc3ccc(C(C)C)cc3)c(=O)n2[nH]1 [TCMDC-143087] | 30.2741 | 57.5973 | 64.9642 | 0.6 µM | 0.3 µM | 2.257 | 40.319 | 64.8982 | 80.3688 | 60.0 h | 4.0 h | 60 | 4 | 72 | 38 | 0.3099 | 30.3% | 57.6% | 65.0% | 41.0116% | ME (maximum effect) in RoK assay (in words): positive value of ME from 24 hours; tlag (in words): low values of tlag; ME / cidal effect at 72 hours: ≤ 65%; t50%_MCC50 (at MCC50): 72.0 h; tlag_MCC50 (at MCC50): 4.0 h; MCC50 (figure 5, in µM): 25.3086 |
| CNc1cc(C)nc(C2CN(C(=O)c3n[nH]c4ccccc34)CCO2)c1 (stereo not shown) [TCMDC-143494] | 32.4456 | 71.1038 | 67.5793 | 50.0 µM | 1.9 µM | 7.648 | 27.7451 | 71.1038 | 67.5793 | 48.0 h | 4.0 h | 48 | 4 | 48 | 4 | 1.852 | 32.5% | 71.1% | 67.6% | 32.4456% | t50%_MCC50 (at MCC50): 48.0 h; tlag_MCC50 (at MCC50): 4.0 h; MCC50 (figure 5): 50 µM |
| Cc1nn(C)c(Cl)c1CN(Cc1cccnc1)Cc1ccsc1 [TCMDC-143477] | -46.0078 | -102.792 | -13.578 | – | 0.6 µM | -6.323 | -46.0078 | -102.792 | -72.3369 | – | 48.0 h | 72 | 48 | 72 | 72 | 0.6173 | -46.0% | -102.8% | -13.6% | -46.0078% | MCC50 (figure 5): 50 µM |
| COc1cc(-c2nc(N3CCOCC3)sc2-c2ccnc(NC3CCOCC3)n2)ccc1Cl.O=C(O)C(F)(F)F [TCMDC-143414] | -30.3967 | 4.32 | 10.4319 | – | 0.34 µM | -8.885 | -7.51 | 27.1663 | 39.4258 | – | 14.0 h | 72 | 14 | 72 | 72 | 0.3429 | -30.4% | 4.3% | 10.4% | -7.51% | MCC50 (figure 5): 50 µM |
| c1ccc2c(CCOc3nccnc3-c3ccncc3)c[nH]c2c1 [TCMDC-143562] | -24.9705 | 30.5632 | 12.8696 | – | 0.2 µM | -8.107 | -35.3498 | 30.5632 | -2.217 | – | 24.0 h | 72 | 24 | 72 | 72 | 0.2058 | -25.0% | 30.6% | 12.9% | -24.9705% | MCC50 (figure 5): 50 µM |
| Clc1ccc(Sc2cnccc2N2CCOCC2)cc1 [TCMDC-143602] | -12.5205 | -29.081 | 15.6088 | – | 0.2 µM | 3.934 | -12.5205 | -29.081 | -95.1907 | – | 72.0 h | 72 | 72 | 72 | 72 | 0.2058 | -12.5% | -29.1% | 15.6% | -12.5205% | MCC50 (figure 5): 50 µM |
| Cc1nccn1C1CCCN(C(=O)c2cc3c(F)cccc3s2)C1 (stereo not shown) [TCMDC-143498] | 32.6582 | 54.1455 | 68.2465 | 4.6 µM | 1.9 µM | – | – | – | – | 48.0 h | 8.0 h | 48 | 8 | 72 | 33.6 | 1.852 | 32.7% | 54.2% | 68.3% | 52.5921% | AM/CELL NORM (Time 4, figure 4 A): 21.9505; AM/CELL NORM (Time 24, figure 4 A): 50.5271; AM/CELL NORM (Time 48, figure 4 A): 69.4926; AM/CELL NORM (Time 72, figure 4 A): 61.0854; t50%_MCC50 (at MCC50): 72.0 h; tlag_MCC50 (at MCC50): 24.0 h; MCC50 (figure 5, in µM): 13.7037 |

From publication PMC8318231, “Rate-of-Kill (RoK) assays to triage large compound sets for Chagas disease drug discovery: Application to GSK Chagas Box” (PLoS Neglected Tropical Diseases, 2021)
